Data as given in publication PMC2833271 (Neuropsychopharmacology : official publication of the …, 2009).
Entries after “also recorded” stand apart in the source; their conditions may differ. Where two headings read alike, the source gives them in different places.

Experiments:
brain MAO-A [1] = target: T1, brain MAO-A (Homo sapiens, UniProt P21397); experiment: PET imaging of [11C]clorgyline binding; assay type: in vivo
T1 sequence (P21397 1-527): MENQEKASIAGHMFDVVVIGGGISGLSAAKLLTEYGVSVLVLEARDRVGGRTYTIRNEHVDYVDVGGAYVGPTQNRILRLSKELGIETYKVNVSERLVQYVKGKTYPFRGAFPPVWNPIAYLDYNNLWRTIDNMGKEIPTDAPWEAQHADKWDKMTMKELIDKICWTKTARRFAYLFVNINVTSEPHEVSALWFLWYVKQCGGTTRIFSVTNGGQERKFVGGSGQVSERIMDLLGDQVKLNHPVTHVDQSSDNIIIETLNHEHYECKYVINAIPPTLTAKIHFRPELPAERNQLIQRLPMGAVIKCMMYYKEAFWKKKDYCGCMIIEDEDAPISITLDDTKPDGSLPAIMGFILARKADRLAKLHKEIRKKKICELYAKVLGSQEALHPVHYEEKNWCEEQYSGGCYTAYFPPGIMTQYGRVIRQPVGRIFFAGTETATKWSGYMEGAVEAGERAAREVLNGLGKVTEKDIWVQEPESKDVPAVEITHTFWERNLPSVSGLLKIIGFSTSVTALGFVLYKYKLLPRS

[2] = Plasma CX157 concentration and pharmacokinetics; assay type: in vivo, human; settings: for concentration at 2 h / concentration at 5 h / concentration at 12 h / concentration at 8 h: oral; for Plasma CX157: single subject value
brain MAO-A [3] = target: T1, brain MAO-A; experiment: Emax model of brain MAO-A inhibition vs plasma CX157 concentration; assay type: in vivo
[4] = Adverse events in study subjects; assay type: in vivo, human; settings: 15 normal men, oral CX157 20-80 mg
MAO-A = settings: in human brain; ref data on file, CeNeRx Biopharma, Cary, NC; cited from earlier work
brain MAO-A [5] = target: T1, brain MAO-A; settings: [11C]harmine PET; ref Bergström et al, 1997; cited from earlier work

O=S1(=O)c2ccc(F)cc2Oc2cc(OCC(F)(F)F)ccc21 [CX157, 3-fluoro-7-(2,2,2-trifluoroethoxy)phenoxathiin-10,10-dioxide]
inhibition of MAO-A (brain MAO-A [1]; 40 mg CX157, first two subjects): ~ 60% | inhibition of [11C]clorgyline binding to brain MAO-A (brain MAO-A [1]; 60 and 80 mg oral doses, 2 h after administration): 47–72% | recovery of brain MAO-A activity (brain MAO-A [1]; 24 h post drug (single dose, 40 mg)): recovered completely; also recorded: Complete recovery to baseline values | inhibition at 40 mg (brain MAO-A [1]; read-out: % MAO-A inhibition (inhibition of [11C]clorgyline binding, λk3), multi-dose 40 mg BID 7 days, n = 3, 12 h post dose): 23.1 ± 3.7% | inhibition at 40 mg (brain MAO-A [1]; read-out: % MAO-A inhibition (inhibition of [11C]clorgyline binding, λk3), multi-dose 40 mg BID, 10 h, single subject value): 27.3% | % MAO-A inhibition (inhibition of [11C]clorgyline binding, λk3) (brain MAO-A [1]; single dose 20 mg, n = 2, 2 h after CX157): 18.5 ± 10.6% | % MAO-A inhibition (inhibition of [11C]clorgyline binding, λk3) (brain MAO-A [1]; single dose 20 mg, n = 2, 5 h after CX157): 18.8 ± 6.7% | % MAO-A inhibition (inhibition of [11C]clorgyline binding, λk3) (brain MAO-A [1]; single dose 20 mg, n = 2, 12 h after CX157): 12.4 ± 10.8% | % MAO-A inhibition (inhibition of [11C]clorgyline binding, λk3) (brain MAO-A [1]; single dose 40 mg, n = 3, 2 h after CX157): 54.7 ± 8.9% | % MAO-A inhibition (inhibition of [11C]clorgyline binding, λk3) (brain MAO-A [1]; single dose 40 mg, n = 3, 12 h after CX157): 6.8 ± 14.6% | % MAO-A inhibition (inhibition of [11C]clorgyline binding, λk3) (brain MAO-A [1]; single dose 40 mg, n = 3, 24 h after CX157): −1.8 ± 0.7% | % MAO-A inhibition (inhibition of [11C]clorgyline binding, λk3) (brain MAO-A [1]; single dose 40 mg, 5 h after CX157, single subject value): 34.5% | % MAO-A inhibition (inhibition of [11C]clorgyline binding, λk3) (brain MAO-A [1]; single dose 40 mg, 8 h after CX157, single subject value): 6.5% | % MAO-A inhibition (inhibition of [11C]clorgyline binding, λk3) (brain MAO-A [1]; single dose 60 mg, n = 3, 5 h after CX157): 31.6 ± 27.4% | % MAO-A inhibition (inhibition of [11C]clorgyline binding, λk3) (brain MAO-A [1]; single dose 60 mg, n = 3, 8 h after CX157): 23.4 ± 30.0% | % MAO-A inhibition (inhibition of [11C]clorgyline binding, λk3) (brain MAO-A [1]; single dose 60 mg, n = 3, 12 h after CX157): 17.6 ± 17.9% | % MAO-A inhibition (inhibition of [11C]clorgyline binding, λk3) (brain MAO-A [1]; single dose 80 mg, n = 4, 2 h after CX157): 72.3 ± 8.7% | % MAO-A inhibition (inhibition of [11C]clorgyline binding, λk3) (brain MAO-A [1]; single dose 80 mg, n = 4, 5 h after CX157): 48.6 ± 12.1% | % MAO-A inhibition (inhibition of [11C]clorgyline binding, λk3) (brain MAO-A [1]; single dose 80 mg, n = 4, 8 h after CX157): 30.4 ± 8.9% | % MAO-A inhibition (inhibition of [11C]clorgyline binding, λk3) (brain MAO-A [1]; single dose 80 mg, 12 h after CX157, single subject value): 43.1% | peak inhibition of [11C]clorgyline binding (brain MAO-A [1]; single doses, all dose groups except 20 mg, 2-h time point): 47–72% | concentration at 2 h ([2]; male, human, plasma, 20 mg, Average plasma CX157, single dose 20 mg, n = 2, 2 h): 18.5 ± 3.3 ng/mL | concentration at 5 h ([2]; male, human, plasma, 20 mg, Average plasma CX157, single dose 20 mg, n = 2, 5 h): 18.8 ± 1.1 ng/mL | concentration at 12 h ([2]; male, human, plasma, 20 mg, Average plasma CX157, single dose 20 mg, n = 2, 12 h): 12.4 ± 0.7 ng/mL | concentration at 2 h ([2]; male, human, plasma, 40 mg, Average plasma CX157, multi-dose 40 mg BID, n = 3, 2 h): 48.3 ± 11.3 ng/mL | concentration at 5 h ([2]; male, human, plasma, 40 mg, Average plasma CX157, multi-dose 40 mg BID, n = 3, 5 h): 34.1 ± 5.8 ng/mL | concentration at 8 h ([2]; male, human, plasma, 40 mg, Average plasma CX157, multi-dose 40 mg BID, n = 3, 8 h): 32.2 ± 4.4 ng/mL | concentration at 12 h ([2]; male, human, plasma, 40 mg, Average plasma CX157, multi-dose 40 mg BID, n = 3, 12 h): 23.1 ± 1.4 ng/mL | concentration at 2 h ([2]; male, human, plasma, 40 mg, Average plasma CX157, single dose 40 mg, n = 3, 2 h): 54.7 ± 18.5 ng/mL | concentration at 12 h ([2]; male, human, plasma, 40 mg, Average plasma CX157, single dose 40 mg, n = 3, 12 h): 6.8 ± 1.5 ng/mL | concentration at 2 h ([2]; male, human, plasma, 60 mg, Average plasma CX157, single dose 60 mg, n = 3, 2 h): 46.8 ± 84.4 ng/mL | concentration at 5 h ([2]; male, human, plasma, 60 mg, Average plasma CX157, single dose 60 mg, n = 3, 5 h): 31.6 ± 37.4 ng/mL | concentration at 8 h ([2]; male, human, plasma, 60 mg, Average plasma CX157, single dose 60 mg, n = 3, 8 h): 23.4 ± 8 ng/mL | concentration at 12 h ([2]; male, human, plasma, 60 mg, Average plasma CX157, single dose 60 mg, n = 3, 12 h): 17.6 ± 6.6 ng/mL | concentration at 2 h ([2]; male, human, plasma, 80 mg, Average plasma CX157, single dose 80 mg, n = 4, 2 h): 72.3 ± 58.8 ng/mL | concentration at 5 h ([2]; male, human, plasma, 80 mg, Average plasma CX157, single dose 80 mg, n = 4, 5 h): 48.6 ± 25 ng/mL | concentration at 8 h ([2]; male, human, plasma, 80 mg, Average plasma CX157, single dose 80 mg, n = 4, 8 h): 30.4 ± 5.2 ng/mL | half-life ([2]; male, human, plasma, po): 6 ± 3.4 h | Plasma CX157 range ([2]; multi-dose 40 mg BID, n = 3, 2 h): 24.5 to 45 ng/mL | Plasma CX157 range ([2]; multi-dose 40 mg BID, n = 3, 5 h): 13.1 to 24.7 ng/mL | Plasma CX157 range ([2]; multi-dose 40 mg BID, n = 3, 8 h): 10.8 to 19.5 ng/mL | Plasma CX157 range ([2]; multi-dose 40 mg BID, n = 3, 12 h): 9 to 11 ng/mL | Plasma CX157 ([2]; multi-dose 40 mg BID, 10 h): 6.9 ng/mL | Plasma CX157 range ([2]; single dose 20 mg, n = 2, 2 h): 3.8 to 8.1 ng/mL | Plasma CX157 range ([2]; single dose 20 mg, n = 2, 5 h): 1.9 to 3.4 ng/mL | Plasma CX157 range ([2]; single dose 20 mg, n = 2, 12 h): 0.6 to 1.6 ng/mL | Plasma CX157 range ([2]; single dose 40 mg, n = 3, 2 h): 18.4 to 55.1 ng/mL | Plasma CX157 range ([2]; single dose 40 mg, n = 3, 12 h): 0.9 to 3.9 ng/mL | Average plasma CX157 ([2]; single dose 40 mg, n = 3, 24 h): 2.8 ± 1.3 ng/mL | Plasma CX157 range ([2]; single dose 40 mg, n = 3, 24 h): 1.8 to 3.7 ng/mL | Plasma CX157 ([2]; single dose 40 mg, 5 h): 8.4 ng/mL | Plasma CX157 ([2]; single dose 40 mg, 8 h): 1.8 ng/mL | Plasma CX157 range ([2]; single dose 60 mg, n = 3, 2 h): 7.6 to 158 ng/mL | Plasma CX157 range ([2]; single dose 60 mg, n = 3, 5 h): 3.6 to 67.3 ng/mL | Plasma CX157 range ([2]; single dose 60 mg, n = 3, 8 h): 3.4 to 14.7 ng/mL | Plasma CX157 range ([2]; single dose 60 mg, n = 3, 12 h): 1.8 to 11.1 ng/mL | Plasma CX157 range ([2]; single dose 80 mg, n = 4, 2 h): 70.7 to 183 ng/mL | Plasma CX157 range ([2]; single dose 80 mg, n = 4, 5 h): 13.5 to 70.2 ng/mL | Plasma CX157 range ([2]; single dose 80 mg, n = 4, 8 h): 5.7 to 15.4 ng/mL | Plasma CX157 ([2]; single dose 80 mg, 12 h): 16.6 ng/mL | EC50 (brain MAO-A [3]): 55.4 nM | n (exponent of sigmoid Emax model) (brain MAO-A [3]; Emax model fit, all subjects, doses and time points): 1.0 | Emax (brain MAO-A [3]; read-out: Emax (maximum inhibiting response)): 80.7% | overall incidence of AEs [4]: 13.3% | serious adverse events or deaths [4]: No serious adverse events (AEs) or deaths occurred | MAO-A inhibiting activity (MAO-A): 3.3 nM

CCS(=O)(=O)Oc1ccc2c(C)c(C)c(=O)oc2c1 [esuprone]
correlation between plasma drug levels and brain MAO-A inhibition (brain MAO-A [5]): no correlation observed
